From PMC3889466 (Journal of medicinal chemistry, 2013)

What was measured:
A/M2 S31N [1] = biological target: T1, A/M2 S31N (Influenza A virus, UniProt P0DOF5, S31N); settings: conductance assay in M2-expressing oocytes; cited from earlier work
A/M2 V27A = A/M2 V27A (Influenza A virus, UniProt P0DOF5, V27A); settings: cited from earlier work
A/M2 S31N [2] = biological target: T1, A/M2 S31N; assay type: cell-based, influenza A/Udorn/72; settings: pH 5.5

SMILES | Activity against the S31N mutant form of A/M2 (in words) (A/M2 S31N [1]) | Activity against the V27A mutant form of A/M2 (in words) (A/M2 V27A) | A/M2 S31N Inhibition by 100 μM for 2 min (%) (A/M2 S31N [2])
CC12CC3CC1(C)CC3(N)C2 [Compound 6] | inactive | inactive | 
CC12CC34CNCC3(C1)CC2(C)C4.Cl [Compound 14a, 7,8-Dimethyl-3-azatetracyclo[5.2.1.1^5,8.0^1,5]undecane hydrochloride] |  |  | 0%
CC12CC3CC1(C)CC3(CN)C2 [Compound 7] | inactive | inactive | 
NC12C3CCC4C3C3C(CCC31)C42 [Compound 8] |  | did not show any activity | 
C1=CC2C3C4C5C=CC4C24CNCC54C13 [Compound 10] |  | marginal activity | 
NCC12C3CCC4C3C3C(CCC31)C42 [Compound 9] |  | did not show any activity | 
C1C2C1C1C3C4C5C6CC6C4C14CNCC54C23 (stereo not drawn) [Compound 11] |  | marginal activity | 
